{"source": "ChEMBL document CHEMBL5236627", "about": "“Synthesis and biological activity evaluation of novel 3,5,7-trisubstituted pyrazolo[1,5-a]pyrimidines” (2023)", "key": {"MV4-11 [1]": {"test_system": "MV4-11", "assay": "Anticancer activity against human MV4-11 cells expressing FLT3-ITD mutant", "format": "functional, cell-based"}, "MOLM-13": {"test_system": "MOLM-13", "assay": "Anticancer activity against human MOLM-13 cells", "format": "functional, cell-based"}, "[2]": {"target": "Cyclin-dependent kinase 2 (Homo sapiens) (UniProt P24941)", "assay": "Inhibition of CDK2 (unknown origin)"}, "CCRF-CEM": {"test_system": "CCRF-CEM", "assay": "Anticancer activity against FLT3-independent human CCRF-CEM cells", "format": "functional, cell-based"}, "[3]": {"target": "Cyclin-dependent kinase 9 (Homo sapiens) (UniProt P50750)", "sequence (P50750 whole entry)": "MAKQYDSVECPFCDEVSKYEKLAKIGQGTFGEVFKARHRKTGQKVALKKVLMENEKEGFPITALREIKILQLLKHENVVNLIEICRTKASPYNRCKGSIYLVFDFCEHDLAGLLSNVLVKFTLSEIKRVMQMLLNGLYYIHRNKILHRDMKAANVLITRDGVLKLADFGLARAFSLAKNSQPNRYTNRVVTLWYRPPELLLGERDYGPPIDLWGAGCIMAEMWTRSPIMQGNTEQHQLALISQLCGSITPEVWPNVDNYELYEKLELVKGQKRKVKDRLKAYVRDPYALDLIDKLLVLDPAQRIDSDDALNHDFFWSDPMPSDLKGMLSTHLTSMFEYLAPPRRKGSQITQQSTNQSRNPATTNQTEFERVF", "assay": "Inhibition of CDK9 (unknown origin)"}, "K562": {"test_system": "K562", "assay": "Anticancer activity against human K562 cells", "format": "functional, cell-based"}, "MCF7": {"test_system": "MCF7", "assay": "Anticancer activity against human MCF7 cells", "format": "functional, cell-based"}, "THP-1": {"test_system": "THP-1", "assay": "Anticancer activity against human THP-1 cells", "format": "functional, cell-based"}, "MV4-11 [4]": {"test_system": "MV4-11", "assay": "Induction of cell cycle arrest in human MV4-11 cells assessed as G2 phase cells at 1 uM by PI staining based flow cytometric analysis (reference value: 12.61 % )", "format": "functional"}, "MV4-11 [5]": {"test_system": "MV4-11", "assay": "Induction of cell cycle arrest in human MV4-11 cells assessed as accumulation of G1 phase cells at 10 uM by PI staining based flow cytometric analysis (reference value: 60.77 % )", "format": "functional"}, "MV4-11 [6]": {"test_system": "MV4-11", "assay": "Induction of cell cycle arrest in human MV4-11 cells assessed as S phase cells at 0.1 uM by PI staining based flow cytometric analysis (reference value: 26.62 % )", "format": "functional"}, "[7]": {"target": "Mitogen-activated protein kinase; ERK1/ERK2 (Homo sapiens) (UniProt P27361+P28482)", "sequence (P27361 whole entry, looked up)": "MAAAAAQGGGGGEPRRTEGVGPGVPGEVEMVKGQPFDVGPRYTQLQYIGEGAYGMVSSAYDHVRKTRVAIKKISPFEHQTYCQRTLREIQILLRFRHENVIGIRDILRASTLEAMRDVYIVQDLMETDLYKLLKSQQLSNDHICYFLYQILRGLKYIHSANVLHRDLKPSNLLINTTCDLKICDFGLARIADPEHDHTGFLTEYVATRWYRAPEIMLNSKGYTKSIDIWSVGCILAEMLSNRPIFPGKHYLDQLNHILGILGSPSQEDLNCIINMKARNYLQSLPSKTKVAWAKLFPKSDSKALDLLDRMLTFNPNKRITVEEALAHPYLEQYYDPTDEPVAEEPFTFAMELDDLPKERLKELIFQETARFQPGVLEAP", "sequence (P28482 whole entry, looked up)": "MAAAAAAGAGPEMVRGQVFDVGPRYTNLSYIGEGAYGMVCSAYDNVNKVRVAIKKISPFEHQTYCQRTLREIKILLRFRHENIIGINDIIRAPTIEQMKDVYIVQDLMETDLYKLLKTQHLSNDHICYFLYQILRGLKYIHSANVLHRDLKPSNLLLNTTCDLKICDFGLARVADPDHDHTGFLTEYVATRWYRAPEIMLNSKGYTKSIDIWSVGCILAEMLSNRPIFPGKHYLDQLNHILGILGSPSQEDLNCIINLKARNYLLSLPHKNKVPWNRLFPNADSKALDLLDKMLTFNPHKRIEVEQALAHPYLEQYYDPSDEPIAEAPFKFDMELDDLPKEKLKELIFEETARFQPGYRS", "assay": "Inhibition of ERK1/2 phosphorylation at Thr202/Tyr204 residues in human MV4-11 cells at 0.1 uM incubated for 1 hrs by immunoblotting analysis", "format": "cell-based"}, "MV4-11 [8]": {"test_system": "MV4-11", "assay": "Induction of cell cycle arrest in human MV4-11 cells assessed as accumulation of G1 phase cells at 0.1 uM by PI staining based flow cytometric analysis (reference value: 60.77 % )", "format": "functional"}, "MV4-11 [9]": {"test_system": "MV4-11", "assay": "Induction of cell cycle arrest in human MV4-11 cells assessed as G2 phase cells at 0.01 uM by PI staining based flow cytometric analysis (reference value: 12.61 % )", "format": "functional"}, "MV4-11 [10]": {"test_system": "MV4-11", "assay": "Induction of cell cycle arrest in human MV4-11 cells assessed as G2 phase cells at 0.1 uM by PI staining based flow cytometric analysis (reference value: 12.61 % )", "format": "functional"}, "[11]": {"target": "T1, Signal transducer and activator of transcription 5A (Homo sapiens) (UniProt P42229)", "T1 sequence (whole entry)": "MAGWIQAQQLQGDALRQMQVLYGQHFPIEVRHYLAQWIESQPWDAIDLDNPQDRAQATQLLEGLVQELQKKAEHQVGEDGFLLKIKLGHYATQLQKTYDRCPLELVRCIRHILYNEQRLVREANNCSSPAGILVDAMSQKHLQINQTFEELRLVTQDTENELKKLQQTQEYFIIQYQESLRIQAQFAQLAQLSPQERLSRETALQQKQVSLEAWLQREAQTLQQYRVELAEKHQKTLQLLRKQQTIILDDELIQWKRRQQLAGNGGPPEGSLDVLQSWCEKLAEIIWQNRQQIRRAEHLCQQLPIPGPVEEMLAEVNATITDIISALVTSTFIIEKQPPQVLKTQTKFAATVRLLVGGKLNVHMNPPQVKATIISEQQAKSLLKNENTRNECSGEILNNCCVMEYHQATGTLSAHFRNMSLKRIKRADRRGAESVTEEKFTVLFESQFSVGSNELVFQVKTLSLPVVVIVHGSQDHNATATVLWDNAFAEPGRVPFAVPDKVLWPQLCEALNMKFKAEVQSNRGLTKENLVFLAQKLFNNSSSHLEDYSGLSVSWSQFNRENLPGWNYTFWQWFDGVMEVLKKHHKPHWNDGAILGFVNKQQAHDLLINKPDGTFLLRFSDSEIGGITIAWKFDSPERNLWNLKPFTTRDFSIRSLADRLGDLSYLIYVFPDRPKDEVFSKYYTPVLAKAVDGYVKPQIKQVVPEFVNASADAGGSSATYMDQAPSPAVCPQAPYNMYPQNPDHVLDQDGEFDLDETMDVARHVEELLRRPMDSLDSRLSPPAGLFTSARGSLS", "assay": "Inhibition of STAT5 phosphorylation in human MV4-11 cells at 0.01 uM incubated for 1 hrs by immunoblotting analysis", "format": "cell-based"}, "MV4-11 [12]": {"test_system": "MV4-11", "assay": "Induction of cell cycle arrest in human MV4-11 cells assessed as S phase cells at 0.001 uM by PI staining based flow cytometric analysis (reference value: 26.62 % )", "format": "functional"}, "[13]": {"target": "Receptor-type tyrosine-protein kinase FLT3 (Homo sapiens) (UniProt P36888)", "sequence (P36888 whole entry)": "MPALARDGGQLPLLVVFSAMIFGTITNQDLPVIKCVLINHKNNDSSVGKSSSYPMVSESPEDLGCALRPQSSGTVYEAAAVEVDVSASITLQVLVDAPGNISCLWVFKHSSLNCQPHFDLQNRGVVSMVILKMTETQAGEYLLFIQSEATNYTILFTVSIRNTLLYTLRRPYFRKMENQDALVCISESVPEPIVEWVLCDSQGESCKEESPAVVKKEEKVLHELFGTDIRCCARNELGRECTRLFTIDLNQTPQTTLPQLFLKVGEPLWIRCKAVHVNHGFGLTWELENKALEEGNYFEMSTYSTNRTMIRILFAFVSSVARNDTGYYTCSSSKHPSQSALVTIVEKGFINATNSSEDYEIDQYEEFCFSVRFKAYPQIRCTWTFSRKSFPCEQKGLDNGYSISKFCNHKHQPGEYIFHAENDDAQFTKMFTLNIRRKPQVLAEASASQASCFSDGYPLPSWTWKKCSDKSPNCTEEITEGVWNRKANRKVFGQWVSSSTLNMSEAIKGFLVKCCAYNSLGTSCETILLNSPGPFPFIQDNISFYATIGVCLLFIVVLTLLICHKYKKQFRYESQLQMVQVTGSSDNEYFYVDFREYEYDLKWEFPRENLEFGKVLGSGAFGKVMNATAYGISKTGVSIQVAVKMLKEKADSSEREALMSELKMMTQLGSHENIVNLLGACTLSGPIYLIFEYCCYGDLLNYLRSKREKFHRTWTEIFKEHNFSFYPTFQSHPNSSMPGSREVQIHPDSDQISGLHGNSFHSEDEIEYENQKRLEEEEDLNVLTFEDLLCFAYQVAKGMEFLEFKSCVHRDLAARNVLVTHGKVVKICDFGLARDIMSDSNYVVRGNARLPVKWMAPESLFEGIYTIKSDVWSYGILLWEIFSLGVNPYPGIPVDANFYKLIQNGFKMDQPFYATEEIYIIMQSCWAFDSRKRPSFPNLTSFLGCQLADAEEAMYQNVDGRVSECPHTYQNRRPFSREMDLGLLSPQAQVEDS", "assay": "Inhibition of FLT3 autophosphorylation at tyrosine 589/591 residues in human MV4-11 cells at 0.01 uM incubated for 1 hrs by immunoblotting analysis", "format": "cell-based"}, "MV4-11 [14]": {"test_system": "MV4-11", "assay": "Induction of cell cycle arrest in human MV4-11 cells assessed as S phase cells at 10 uM by PI staining based flow cytometric analysis (reference value: 26.62 % )", "format": "functional"}, "MV4-11 [15]": {"test_system": "MV4-11", "assay": "Induction of cell cycle arrest in human MV4-11 cells assessed as accumulation of G1 phase cells at 0.01 uM by PI staining based flow cytometric analysis (reference value: 60.77 % )", "format": "functional"}, "MV4-11 [16]": {"test_system": "MV4-11", "assay": "Induction of cell cycle arrest in human MV4-11 cells assessed as G2 phase cells at 0.001 uM by PI staining based flow cytometric analysis (reference value: 12.61 % )", "format": "functional"}, "MV4-11 [17]": {"test_system": "MV4-11", "assay": "Induction of cell cycle arrest in human MV4-11 cells assessed as G2 phase cells at 10 uM by PI staining based flow cytometric analysis (reference value: 12.61 % )", "format": "functional"}, "MV4-11 [18]": {"test_system": "MV4-11", "assay": "Induction of cell cycle arrest in human MV4-11 cells assessed as S phase cells at 0.01 uM by PI staining based flow cytometric analysis (reference value: 26.62 % )", "format": "functional"}, "MV4-11 [19]": {"test_system": "MV4-11", "assay": "Induction of cell cycle arrest in human MV4-11 cells assessed as S phase cells at 1 uM by PI staining based flow cytometric analysis (reference value: 26.62 % )", "format": "functional"}, "MV4-11 [20]": {"test_system": "MV4-11", "assay": "Induction of cell cycle arrest in human MV4-11 cells assessed as accumulation of G1 phase cells at 1 uM by PI staining based flow cytometric analysis (reference value: 60.77 % )", "format": "functional"}, "MV4-11 [21]": {"test_system": "MV4-11", "assay": "Induction of cell cycle arrest in human MV4-11 cells assessed as accumulation of G1 phase cells at 0.001 uM by PI staining based flow cytometric analysis (reference value: 60.77 % )", "format": "functional"}}, "note": "Activity calls are given as the source filed them. No cut-off for these calls is given here."}
{"molecule": "N[C@H]1CC[C@H](Nc2cc(Nc3ccc(N4CC5(COC5)C4)cc3)n3ncc(C4CCCC4)c3n2)CC1", "values": [{"measurement": "Activity", "setting": "MV4-11 [1]", "value": "Active"}, {"measurement": "Activity", "setting": "MOLM-13", "value": "Active"}]}
{"molecule": "CC[C@@H](CO)Nc1cc(Nc2ccc(-c3cccs3)nc2)n2ncc(C3CCCC3)c2n1", "values": [{"measurement": "Activity", "setting": "MV4-11 [1]", "value": "Active"}, {"measurement": "Activity", "setting": "MOLM-13", "value": "Active"}]}
{"molecule": "N[C@H]1CC[C@H](Nc2cc(Nc3ccc(-c4cccs4)nc3)n3ncc(C4CCCC4)c3n2)CC1", "values": [{"measurement": "inhibition", "setting": "[2]", "value": "Active"}, {"measurement": "Activity", "setting": "MV4-11 [1]", "value": "Active"}, {"measurement": "Activity", "setting": "CCRF-CEM", "value": "Active"}, {"measurement": "inhibition", "setting": "[3]", "value": "Active"}, {"measurement": "Activity", "setting": "MOLM-13", "value": "Active"}, {"measurement": "Activity", "setting": "K562", "value": "Active"}, {"measurement": "Activity", "setting": "MCF7", "value": "Active"}, {"measurement": "Activity", "setting": "THP-1", "value": "Active"}]}
{"molecule": "NCCCCNc1cc(NCc2cccc(CN3CCOCC3)c2)n2ncc(C3CCCC3)c2n1", "values": [{"measurement": "Activity", "setting": "MV4-11 [1]", "value": "Active"}, {"measurement": "Activity", "setting": "MOLM-13", "value": "Active"}]}
{"molecule": "N[C@H]1CC[C@H](Nc2cc(Nc3cccc(CN4CCOCC4)c3)n3ncc(C4CCCC4)c3n2)CC1", "values": [{"measurement": "Activity", "setting": "MV4-11 [1]", "value": "Active"}, {"measurement": "Activity", "setting": "MOLM-13", "value": "Active"}]}
{"molecule": "N[C@H]1CC[C@H](Nc2cc(NCc3ccc(Br)cc3)n3ncc(C4CCCC4)c3n2)CC1", "values": [{"measurement": "Activity", "setting": "MV4-11 [1]", "value": "Active"}, {"measurement": "Activity", "setting": "MOLM-13", "value": "Active"}]}
{"molecule": "N[C@H]1CC[C@H](Nc2cc(Nc3ccc(CN4CCOCC4)cc3)n3ncc(C4CCCC4)c3n2)CC1", "values": [{"measurement": "Activity", "setting": "MV4-11 [4]", "value": 7.13, "unit": "%"}, {"measurement": "Activity", "setting": "MV4-11 [5]", "value": 75.69, "unit": "%"}, {"measurement": "Activity", "setting": "MV4-11 [6]", "value": 8.66, "unit": "%"}, {"measurement": "inhibition", "setting": "[7]", "value": "Active"}, {"measurement": "inhibition", "setting": "[2]", "value": "Active"}, {"measurement": "Activity", "setting": "MV4-11 [1]", "value": "Active"}, {"measurement": "Activity", "setting": "MV4-11 [8]", "value": 86.23, "unit": "%"}, {"measurement": "Activity", "setting": "MV4-11 [9]", "value": 12.79, "unit": "%"}, {"measurement": "Activity", "setting": "MV4-11 [10]", "value": 5.11, "unit": "%"}, {"measurement": "inhibition", "setting": "[11]", "value": "Active"}, {"measurement": "Activity", "setting": "CCRF-CEM", "value": "Active"}, {"measurement": "Activity", "setting": "MV4-11 [12]", "value": 26.03, "unit": "%"}, {"measurement": "inhibition", "setting": "[13]", "value": "Active"}, {"measurement": "Activity", "setting": "MV4-11 [14]", "value": 18.38, "unit": "%"}, {"measurement": "Activity", "setting": "MV4-11 [15]", "value": 61.96, "unit": "%"}, {"measurement": "inhibition", "setting": "[3]", "value": "Active"}, {"measurement": "Activity", "setting": "MV4-11 [16]", "value": 14.62, "unit": "%"}, {"measurement": "Activity", "setting": "MOLM-13", "value": "Active"}, {"measurement": "Activity", "setting": "K562", "value": "Active"}, {"measurement": "Activity", "setting": "MV4-11 [17]", "value": 5.93, "unit": "%"}, {"measurement": "Activity", "setting": "MCF7", "value": "Active"}, {"measurement": "Activity", "setting": "MV4-11 [18]", "value": 25.25, "unit": "%"}, {"measurement": "Activity", "setting": "MV4-11 [19]", "value": 16.48, "unit": "%"}, {"measurement": "Activity", "setting": "THP-1", "value": "Active"}, {"measurement": "Activity", "setting": "MV4-11 [20]", "value": 76.39, "unit": "%"}, {"measurement": "Activity", "setting": "MV4-11 [21]", "value": 59.36, "unit": "%"}]}
{"molecule": "NCCCCNc1cc(Nc2ccc(CN3CCOCC3)cc2)n2ncc(C3CCCC3)c2n1", "values": [{"measurement": "Activity", "setting": "MV4-11 [1]", "value": "Active"}, {"measurement": "Activity", "setting": "MOLM-13", "value": "Active"}]}
